In ChEMBL document CHEMBL1141862, “Pyrimido-oxazepine as a versatile template for the development of inhibitors of specific kinases” (Bioorg Med Chem Lett, 2005):
Activity calls are given as the source filed them. No cut-off for these calls is given here.

Tests used:
[1] = molecular target: T1, Aurora kinase A (Homo sapiens, UniProt O14965); assay: Inhibitory activity against Aurora A kinase
T1 sequence (O14965 whole entry): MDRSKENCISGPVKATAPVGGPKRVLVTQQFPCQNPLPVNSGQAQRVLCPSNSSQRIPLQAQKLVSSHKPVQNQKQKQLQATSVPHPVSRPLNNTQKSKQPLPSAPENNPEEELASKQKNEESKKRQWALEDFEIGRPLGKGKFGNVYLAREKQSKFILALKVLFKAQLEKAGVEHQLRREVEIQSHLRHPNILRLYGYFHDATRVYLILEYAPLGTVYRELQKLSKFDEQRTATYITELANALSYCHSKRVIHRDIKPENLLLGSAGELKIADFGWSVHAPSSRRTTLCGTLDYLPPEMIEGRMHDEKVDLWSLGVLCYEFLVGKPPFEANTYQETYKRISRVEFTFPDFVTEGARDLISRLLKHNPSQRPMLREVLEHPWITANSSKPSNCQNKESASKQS

[2] = molecular target: T2, Cytoplasmic tyrosine-protein kinase BMX (Homo sapiens) (UniProt P51813); assay: Inhibitory activity against ETK at 25 uM
T2 sequence (whole entry): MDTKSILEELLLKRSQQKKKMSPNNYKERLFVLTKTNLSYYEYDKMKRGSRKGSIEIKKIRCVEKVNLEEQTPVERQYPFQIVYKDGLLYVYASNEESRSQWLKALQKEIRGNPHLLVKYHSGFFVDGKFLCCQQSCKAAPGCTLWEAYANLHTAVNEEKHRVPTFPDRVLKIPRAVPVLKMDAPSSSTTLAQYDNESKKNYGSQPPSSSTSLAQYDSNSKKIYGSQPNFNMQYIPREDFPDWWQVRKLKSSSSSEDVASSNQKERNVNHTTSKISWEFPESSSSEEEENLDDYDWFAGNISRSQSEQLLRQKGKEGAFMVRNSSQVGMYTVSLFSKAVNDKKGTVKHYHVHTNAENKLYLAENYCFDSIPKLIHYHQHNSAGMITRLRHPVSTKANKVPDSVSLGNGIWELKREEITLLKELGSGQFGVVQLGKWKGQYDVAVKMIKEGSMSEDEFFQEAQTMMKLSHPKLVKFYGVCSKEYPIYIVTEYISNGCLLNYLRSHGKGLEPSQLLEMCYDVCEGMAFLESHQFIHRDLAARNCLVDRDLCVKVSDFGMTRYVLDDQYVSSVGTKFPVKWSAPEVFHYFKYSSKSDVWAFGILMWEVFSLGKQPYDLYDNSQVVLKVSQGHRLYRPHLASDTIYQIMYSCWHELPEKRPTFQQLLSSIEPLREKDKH

[3] = molecular target: Fibroblast growth factor receptor 1 (Homo sapiens) (UniProt P11362); assay: Inhibitory activity against FGF1R at 25 uM
[4] = molecular target: Vascular endothelial growth factor receptor 2 (Homo sapiens, UniProt P35968); assay: Inhibitory activity against KDR
[5] = molecular target: Hepatocyte growth factor receptor (Homo sapiens) (UniProt P08581); assay: Inhibitory activity against c-Met at 25 uM
[6] = molecular target: Vascular endothelial growth factor receptor 1 (Homo sapiens) (UniProt P17948); assay: Inhibitory activity against FLT1 at 25 uM
[7] = molecular target: Insulin-like growth factor 1 receptor (Homo sapiens) (UniProt P08069); assay: Inhibitory activity against IGF1R at 25 uM
[8] = molecular target: Epidermal growth factor receptor (Homo sapiens) (UniProt P00533); assay: Inhibitory activity against EGFR at 25 uM
[9] = molecular target: Insulin receptor (Homo sapiens, UniProt P06213); assay: Inhibitory activity against IR
[10] = molecular target: T3, Receptor-type tyrosine-protein kinase FLT3 (Homo sapiens, UniProt P36888); assay: Inhibitory activity against FLT3 kinase in a HTRF assay
T3 sequence (P36888 whole entry): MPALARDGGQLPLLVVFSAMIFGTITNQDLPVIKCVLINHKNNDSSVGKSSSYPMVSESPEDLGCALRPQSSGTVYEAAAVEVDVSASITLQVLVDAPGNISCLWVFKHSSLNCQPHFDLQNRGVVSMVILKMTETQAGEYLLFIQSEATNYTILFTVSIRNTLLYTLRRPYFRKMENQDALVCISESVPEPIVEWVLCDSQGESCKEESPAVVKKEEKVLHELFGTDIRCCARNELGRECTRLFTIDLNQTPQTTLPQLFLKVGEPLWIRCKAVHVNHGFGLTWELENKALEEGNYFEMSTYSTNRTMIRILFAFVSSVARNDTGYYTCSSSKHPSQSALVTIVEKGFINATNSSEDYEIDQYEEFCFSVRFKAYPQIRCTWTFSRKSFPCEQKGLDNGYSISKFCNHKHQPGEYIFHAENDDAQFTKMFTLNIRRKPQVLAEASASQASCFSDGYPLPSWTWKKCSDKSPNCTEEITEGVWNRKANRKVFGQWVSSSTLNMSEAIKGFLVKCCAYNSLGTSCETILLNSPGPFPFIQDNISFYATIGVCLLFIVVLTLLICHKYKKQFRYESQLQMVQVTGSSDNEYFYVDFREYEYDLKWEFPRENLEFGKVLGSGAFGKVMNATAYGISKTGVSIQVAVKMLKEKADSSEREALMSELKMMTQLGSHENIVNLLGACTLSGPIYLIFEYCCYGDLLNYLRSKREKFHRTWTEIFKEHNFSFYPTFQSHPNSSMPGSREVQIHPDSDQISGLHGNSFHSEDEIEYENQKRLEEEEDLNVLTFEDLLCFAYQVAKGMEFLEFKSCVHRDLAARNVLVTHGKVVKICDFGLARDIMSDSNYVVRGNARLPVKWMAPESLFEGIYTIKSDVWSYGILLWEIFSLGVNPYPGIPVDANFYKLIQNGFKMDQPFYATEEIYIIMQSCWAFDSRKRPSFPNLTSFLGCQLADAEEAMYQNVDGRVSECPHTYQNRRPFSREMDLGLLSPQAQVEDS

Sequence of Insulin receptor (P06213 28-758 limits assumed): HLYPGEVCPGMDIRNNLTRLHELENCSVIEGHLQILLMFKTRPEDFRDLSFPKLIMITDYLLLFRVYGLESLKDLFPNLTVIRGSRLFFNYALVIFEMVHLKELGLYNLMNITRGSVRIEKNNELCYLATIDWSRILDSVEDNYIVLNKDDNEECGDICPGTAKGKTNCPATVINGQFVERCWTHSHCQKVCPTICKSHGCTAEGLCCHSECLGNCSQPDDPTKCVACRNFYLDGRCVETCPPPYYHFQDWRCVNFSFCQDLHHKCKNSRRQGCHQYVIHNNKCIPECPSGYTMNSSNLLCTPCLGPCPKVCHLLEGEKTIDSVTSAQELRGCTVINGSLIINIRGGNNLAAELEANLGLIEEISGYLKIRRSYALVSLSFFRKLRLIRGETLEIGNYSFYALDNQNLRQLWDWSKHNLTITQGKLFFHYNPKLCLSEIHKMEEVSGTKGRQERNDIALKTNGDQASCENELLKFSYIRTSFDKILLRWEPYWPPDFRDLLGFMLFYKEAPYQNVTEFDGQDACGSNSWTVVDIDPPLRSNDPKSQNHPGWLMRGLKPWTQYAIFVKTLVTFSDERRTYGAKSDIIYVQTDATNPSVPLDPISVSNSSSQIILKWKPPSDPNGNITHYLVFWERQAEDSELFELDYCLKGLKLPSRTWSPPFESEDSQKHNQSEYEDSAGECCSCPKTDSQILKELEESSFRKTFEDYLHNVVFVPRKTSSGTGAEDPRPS
Sequence of Insulin receptor (P06213 763-1382 limits assumed): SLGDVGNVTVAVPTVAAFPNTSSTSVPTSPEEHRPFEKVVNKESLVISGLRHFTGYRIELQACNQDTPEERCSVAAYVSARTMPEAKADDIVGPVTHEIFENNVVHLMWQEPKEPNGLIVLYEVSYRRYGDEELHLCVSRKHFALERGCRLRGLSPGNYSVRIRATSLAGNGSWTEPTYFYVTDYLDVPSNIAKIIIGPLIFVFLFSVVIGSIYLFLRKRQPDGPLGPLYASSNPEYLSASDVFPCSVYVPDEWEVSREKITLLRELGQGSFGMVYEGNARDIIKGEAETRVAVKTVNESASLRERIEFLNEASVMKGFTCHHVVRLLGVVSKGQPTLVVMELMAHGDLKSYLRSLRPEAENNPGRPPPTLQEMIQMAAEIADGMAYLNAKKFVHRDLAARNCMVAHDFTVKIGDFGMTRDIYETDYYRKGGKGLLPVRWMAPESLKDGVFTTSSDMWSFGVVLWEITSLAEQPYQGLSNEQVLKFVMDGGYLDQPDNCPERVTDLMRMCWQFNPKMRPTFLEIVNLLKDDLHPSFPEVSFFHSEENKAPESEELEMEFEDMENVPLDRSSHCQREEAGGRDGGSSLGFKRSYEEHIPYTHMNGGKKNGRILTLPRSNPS
Sequence of Hepatocyte growth factor receptor (Homo sapiens) (P08581 whole entry): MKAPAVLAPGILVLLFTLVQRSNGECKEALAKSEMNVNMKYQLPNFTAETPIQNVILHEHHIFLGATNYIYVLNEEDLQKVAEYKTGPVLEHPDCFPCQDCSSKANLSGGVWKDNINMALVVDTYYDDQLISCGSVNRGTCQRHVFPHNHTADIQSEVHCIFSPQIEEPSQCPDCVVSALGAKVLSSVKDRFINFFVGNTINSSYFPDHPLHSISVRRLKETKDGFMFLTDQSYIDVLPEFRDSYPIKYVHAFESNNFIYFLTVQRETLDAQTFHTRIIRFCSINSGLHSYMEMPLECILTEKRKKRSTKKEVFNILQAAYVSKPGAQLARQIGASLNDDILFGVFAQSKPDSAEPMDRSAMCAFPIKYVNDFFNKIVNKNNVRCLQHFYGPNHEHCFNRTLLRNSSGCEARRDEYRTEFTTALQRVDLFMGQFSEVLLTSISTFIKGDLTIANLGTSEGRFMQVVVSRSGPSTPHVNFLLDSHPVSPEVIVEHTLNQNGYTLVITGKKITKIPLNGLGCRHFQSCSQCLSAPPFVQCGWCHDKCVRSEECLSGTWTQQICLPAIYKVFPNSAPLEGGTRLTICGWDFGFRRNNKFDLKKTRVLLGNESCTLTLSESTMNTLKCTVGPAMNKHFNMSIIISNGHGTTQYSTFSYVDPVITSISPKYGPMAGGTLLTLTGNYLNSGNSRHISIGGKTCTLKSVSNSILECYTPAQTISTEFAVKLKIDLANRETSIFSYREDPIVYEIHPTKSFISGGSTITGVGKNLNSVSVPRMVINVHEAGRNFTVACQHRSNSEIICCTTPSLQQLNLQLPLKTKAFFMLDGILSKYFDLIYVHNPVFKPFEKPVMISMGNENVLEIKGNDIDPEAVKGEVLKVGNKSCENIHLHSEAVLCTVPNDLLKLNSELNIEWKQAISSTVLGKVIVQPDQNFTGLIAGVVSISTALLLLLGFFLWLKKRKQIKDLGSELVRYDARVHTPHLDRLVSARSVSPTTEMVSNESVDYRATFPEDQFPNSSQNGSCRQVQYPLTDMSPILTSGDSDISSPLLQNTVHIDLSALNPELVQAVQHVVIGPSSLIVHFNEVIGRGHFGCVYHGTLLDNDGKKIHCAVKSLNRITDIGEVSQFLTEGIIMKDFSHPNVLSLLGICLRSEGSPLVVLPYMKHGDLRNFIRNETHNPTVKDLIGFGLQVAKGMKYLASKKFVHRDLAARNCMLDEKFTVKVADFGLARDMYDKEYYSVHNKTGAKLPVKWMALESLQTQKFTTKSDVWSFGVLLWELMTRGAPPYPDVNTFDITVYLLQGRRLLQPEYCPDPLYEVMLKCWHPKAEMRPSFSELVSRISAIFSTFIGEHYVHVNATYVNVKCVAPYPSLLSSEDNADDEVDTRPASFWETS
Sequence of Vascular endothelial growth factor receptor 2 (P35968 whole entry): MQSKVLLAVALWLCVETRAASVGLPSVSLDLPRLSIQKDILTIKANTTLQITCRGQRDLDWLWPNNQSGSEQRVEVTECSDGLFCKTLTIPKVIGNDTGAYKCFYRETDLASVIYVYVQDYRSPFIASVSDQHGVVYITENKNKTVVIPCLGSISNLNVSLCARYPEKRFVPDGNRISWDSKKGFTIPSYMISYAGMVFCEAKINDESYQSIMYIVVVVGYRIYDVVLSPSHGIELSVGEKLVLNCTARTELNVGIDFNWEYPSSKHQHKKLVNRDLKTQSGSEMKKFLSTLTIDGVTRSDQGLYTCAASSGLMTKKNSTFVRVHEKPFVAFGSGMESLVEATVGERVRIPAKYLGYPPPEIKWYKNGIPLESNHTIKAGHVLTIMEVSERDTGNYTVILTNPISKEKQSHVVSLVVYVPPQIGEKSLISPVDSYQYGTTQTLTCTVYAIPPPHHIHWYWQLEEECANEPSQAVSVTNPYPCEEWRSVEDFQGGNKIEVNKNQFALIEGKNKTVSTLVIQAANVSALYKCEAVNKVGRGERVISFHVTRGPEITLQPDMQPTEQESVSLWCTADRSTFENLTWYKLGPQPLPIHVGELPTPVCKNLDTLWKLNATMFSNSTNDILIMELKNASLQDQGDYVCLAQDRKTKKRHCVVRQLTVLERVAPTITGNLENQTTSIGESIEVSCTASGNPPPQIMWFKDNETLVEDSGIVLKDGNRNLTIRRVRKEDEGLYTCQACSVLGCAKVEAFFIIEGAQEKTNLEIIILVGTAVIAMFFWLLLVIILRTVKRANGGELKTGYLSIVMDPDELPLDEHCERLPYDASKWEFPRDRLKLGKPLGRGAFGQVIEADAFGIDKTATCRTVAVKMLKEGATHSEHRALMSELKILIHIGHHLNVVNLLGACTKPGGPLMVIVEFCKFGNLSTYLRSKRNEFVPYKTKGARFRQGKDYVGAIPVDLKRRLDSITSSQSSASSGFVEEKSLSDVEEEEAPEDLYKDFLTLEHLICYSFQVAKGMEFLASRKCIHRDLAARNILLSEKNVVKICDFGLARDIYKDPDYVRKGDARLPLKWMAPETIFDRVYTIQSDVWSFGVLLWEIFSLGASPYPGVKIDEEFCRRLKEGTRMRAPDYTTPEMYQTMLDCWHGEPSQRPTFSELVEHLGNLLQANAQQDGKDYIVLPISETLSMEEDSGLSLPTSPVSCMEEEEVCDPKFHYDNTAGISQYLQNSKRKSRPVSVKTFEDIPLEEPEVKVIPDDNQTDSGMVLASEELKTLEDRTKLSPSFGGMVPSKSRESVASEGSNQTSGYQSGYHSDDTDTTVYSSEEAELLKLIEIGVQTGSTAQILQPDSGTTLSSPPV
Sequence of Fibroblast growth factor receptor 1 (Homo sapiens) (P11362 22-822 limits assumed): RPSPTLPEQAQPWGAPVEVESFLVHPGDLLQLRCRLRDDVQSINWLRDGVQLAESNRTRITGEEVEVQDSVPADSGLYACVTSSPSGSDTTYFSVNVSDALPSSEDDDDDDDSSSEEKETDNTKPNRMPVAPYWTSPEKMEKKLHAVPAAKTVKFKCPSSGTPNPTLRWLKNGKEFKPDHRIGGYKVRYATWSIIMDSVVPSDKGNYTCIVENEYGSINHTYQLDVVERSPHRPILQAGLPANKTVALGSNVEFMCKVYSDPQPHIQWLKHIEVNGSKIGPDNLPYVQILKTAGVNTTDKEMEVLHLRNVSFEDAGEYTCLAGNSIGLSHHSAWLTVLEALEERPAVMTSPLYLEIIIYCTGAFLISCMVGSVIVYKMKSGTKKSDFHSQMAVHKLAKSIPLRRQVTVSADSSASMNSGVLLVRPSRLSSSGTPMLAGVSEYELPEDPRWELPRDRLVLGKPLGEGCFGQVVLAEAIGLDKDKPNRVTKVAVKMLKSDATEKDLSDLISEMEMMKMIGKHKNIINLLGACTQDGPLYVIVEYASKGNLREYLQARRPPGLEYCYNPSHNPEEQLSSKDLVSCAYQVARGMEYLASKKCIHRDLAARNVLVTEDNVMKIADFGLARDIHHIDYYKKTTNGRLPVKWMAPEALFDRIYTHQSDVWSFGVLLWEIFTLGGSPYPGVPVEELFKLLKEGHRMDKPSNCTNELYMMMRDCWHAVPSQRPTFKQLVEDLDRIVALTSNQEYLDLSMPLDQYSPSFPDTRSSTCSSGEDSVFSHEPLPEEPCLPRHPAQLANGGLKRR

**Q.** For O=C(Nc1ncc(Nc2ncnc3c2NCc2ccccc2O3)cn1)c1ccccc1, which IC50 [1] is on record?
**A.** Its IC50 is 1900 nM.

**Q.** With COc1cc2c(cc1OC)Oc1ncnc(Nc3cnc(NC(=O)c4cccc(F)c4)nc3)c1NC2 as the compound, how does the IC50 [1] read?
**A.** The IC50 was 1100 nM.

**Q.** With CCN(CC)c1ccc2c(c1)Oc1ncnc(Nc3cnc(NC(=O)c4ccccc4)nc3)c1NC2 as the compound, how does the IC50 [1] read?
**A.** Its IC50 is 5000 nM.

**Q.** Which Activity [2] does the source give for O=C(Nc1ccc2c(c1)C=Nc1c(Cl)ncnc1O2)Nc1ccc(Cl)c(C(F)(F)F)c1 here?
**A.** Its Activity is “inactive”.

**Q.** What about the Activity [3] of the same compound?
**A.** Its Activity is “inactive”.

**Q.** What about the IC50 [4] of the same compound?
**A.** Its IC50 is 9500 nM.

**Q.** And the Activity [5]?
**A.** The Activity was “inactive”.

**Q.** And the Activity [6]?
**A.** Its Activity is “inactive”.

**Q.** What about the Activity [7] of the same compound?
**A.** The Activity was “inactive”.

**Q.** What about the Activity [8] of the same compound?
**A.** Its Activity is “inactive”.

**Q.** And the IC50 [9]?
**A.** Its IC50 is 9500 nM.

**Q.** What about the IC50 [10] of the same compound?
**A.** Its IC50 is 450 nM.

**Q.** COc1ccc2c(c1)CNc1c(Nc3cnc(NC(=O)c4ccccc4)nc3)ncnc1O2 was tested. Which IC50 [1] did it give?
**A.** Its IC50 is 970 nM.

**Q.** COc1ccc2c(c1)CNc1c(Nc3cnc(NC(=O)c4cccc(F)c4)nc3)ncnc1O2 was tested. Which IC50 [1] did it give?
**A.** Its IC50 is 1100 nM.

**Q.** How did the IC50 [1] turn out when COc1cccc2c1CNc1c(Nc3cnc(NC(=O)c4ccccc4)nc3)ncnc1O2 was run?
**A.** The IC50 was 2200 nM.

**Q.** With COc1cc2c(cc1OC)Oc1ncnc(Nc3cnc(NC(=O)c4ccc(C)cc4)nc3)c1NC2 as the compound, how does the IC50 [1] read?
**A.** The IC50 was 1200 nM.

**Q.** Which IC50 [1] does the source give for COc1ccc2c(c1)CNc1c(Nc3cnc(NC(=O)c4ccc(C)cc4)nc3)ncnc1O2 here?
**A.** Its IC50 is 3500 nM.

**Q.** For COc1ccc2c(c1)Oc1ncnc(Nc3cnc(NC(=O)c4ccc(F)cc4)nc3)c1NC2, which IC50 [1] is on record?
**A.** Its IC50 is 330 nM.

**Q.** Cc1ccc(C(=O)Nc2ncc(Nc3ncnc4c3NCc3ccccc3O4)cn2)cc1 was tested. Which IC50 [1] did it give?
**A.** The IC50 was 3700 nM.

**Q.** With COc1ccc2c(c1)Oc1ncnc(Nc3cnc(NC(=O)c4ccccc4)nc3)c1NC2 as the compound, how does the IC50 [1] read?
**A.** The IC50 was 600 nM.

**Q.** With O=C(Nc1ccc2c(c1)CNc1cnc(Cl)nc1O2)Nc1ccc(Cl)c(C(F)(F)F)c1 as the compound, how does the IC50 [10] read?
**A.** Its IC50 is 900 nM.

**Q.** Which IC50 [1] does the source give for COc1cccc2c1Oc1ncnc(Nc3cnc(NC(=O)c4ccccc4)nc3)c1NC2 here?
**A.** Its IC50 is over 10000 nM.

**Q.** How did the IC50 [1] turn out when COc1cc2c(cc1OC)Oc1ncnc(Nc3cnc(NC(=O)c4ccccc4)nc3)c1NC2 was run?
**A.** Its IC50 is 470 nM.

**Q.** COc1ccc2c(c1)Oc1ncnc(Nc3cnc(NC(=O)c4cccc(F)c4)nc3)c1NC2 was tested. Which IC50 [1] did it give?
**A.** Its IC50 is 320 nM.

**Q.** O=C(Nc1ccc2c(c1)CNc1c(Cl)ncnc1O2)Nc1ccc(Cl)c(C(F)(F)F)c1 was tested. Which IC50 [10] did it give?
**A.** Its IC50 is 13700 nM.
